Values joined by “and” are separate entries in the source; they are usually repeats but may differ in a detail not shown here. Identical values can stand only once.
Assays:
[1] = biological target: T1, Bromodomain-containing protein 3 (Homo sapiens, UniProt Q15059); test: Binding affinity to biotinylated BRD3-ET domain (unknown origin) expressed in Escherichia coli Rosetta (DE3) pLysS assessed as dissociation constant at 4 degreeC by SPR analysis
Target sequence in this assay (Q15059 whole entry, the tested form may be a part): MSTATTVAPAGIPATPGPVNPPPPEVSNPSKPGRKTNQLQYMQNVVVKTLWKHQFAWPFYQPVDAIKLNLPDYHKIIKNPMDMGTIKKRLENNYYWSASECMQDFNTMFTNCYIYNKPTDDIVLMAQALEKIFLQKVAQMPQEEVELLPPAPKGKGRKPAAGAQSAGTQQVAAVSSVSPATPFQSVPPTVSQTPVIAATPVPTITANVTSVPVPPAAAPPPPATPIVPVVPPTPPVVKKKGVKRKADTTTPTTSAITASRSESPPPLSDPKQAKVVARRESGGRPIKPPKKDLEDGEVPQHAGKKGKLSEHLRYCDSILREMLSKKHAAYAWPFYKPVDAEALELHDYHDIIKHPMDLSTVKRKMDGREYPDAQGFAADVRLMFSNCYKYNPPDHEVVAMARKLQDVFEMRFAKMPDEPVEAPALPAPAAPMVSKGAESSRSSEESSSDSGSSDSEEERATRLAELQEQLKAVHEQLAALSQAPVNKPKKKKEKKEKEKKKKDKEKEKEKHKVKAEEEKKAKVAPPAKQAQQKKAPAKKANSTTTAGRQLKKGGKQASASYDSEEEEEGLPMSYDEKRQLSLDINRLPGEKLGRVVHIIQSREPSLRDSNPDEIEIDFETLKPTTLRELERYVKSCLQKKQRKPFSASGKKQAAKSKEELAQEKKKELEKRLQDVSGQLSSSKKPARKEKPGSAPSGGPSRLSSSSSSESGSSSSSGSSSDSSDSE

[2] = biological target: T1, Bromodomain-containing protein 3; test: Binding affinity to recombinant BRD3-ET domain (unknown origin) expressed in Escherichia coli Rosetta (DE3) pLysS assessed as dissociation constant by 1H- NMR analysis
Target sequence in this assay (Q15059 whole entry, the tested form may be a part): as above

[3] = biological target: T1, Bromodomain-containing protein 3; test: Binding affinity to recombinant BRD3-ET domain (unknown origin) expressed in Escherichia coli Rosetta (DE3) pLysS assessed as dissociation constant by 19F- NMR analysis
Target sequence in this assay (Q15059 whole entry, the tested form may be a part): as above

[4] = biological target: T1, Bromodomain-containing protein 3; test: Binding affinity to 15N-labeled recombinant BRD3-ET domain (unknown origin) expressed in Escherichia coli Rosetta (DE3) pLysS assessed as dissociation constant by […] HSQC NMR analysis
Target sequence in this assay (Q15059 whole entry, the tested form may be a part): as above

[5] = biological target: T1, Bromodomain-containing protein 3; test: Binding affinity to biotinylated BRD3-ET domain (unknown origin) expressed in Escherichia coli Rosetta (DE3) pLysS assessed as dissociation off-rate constant at 4 degreeC by SPR analysis
Target sequence in this assay (Q15059 2-726 limits assumed): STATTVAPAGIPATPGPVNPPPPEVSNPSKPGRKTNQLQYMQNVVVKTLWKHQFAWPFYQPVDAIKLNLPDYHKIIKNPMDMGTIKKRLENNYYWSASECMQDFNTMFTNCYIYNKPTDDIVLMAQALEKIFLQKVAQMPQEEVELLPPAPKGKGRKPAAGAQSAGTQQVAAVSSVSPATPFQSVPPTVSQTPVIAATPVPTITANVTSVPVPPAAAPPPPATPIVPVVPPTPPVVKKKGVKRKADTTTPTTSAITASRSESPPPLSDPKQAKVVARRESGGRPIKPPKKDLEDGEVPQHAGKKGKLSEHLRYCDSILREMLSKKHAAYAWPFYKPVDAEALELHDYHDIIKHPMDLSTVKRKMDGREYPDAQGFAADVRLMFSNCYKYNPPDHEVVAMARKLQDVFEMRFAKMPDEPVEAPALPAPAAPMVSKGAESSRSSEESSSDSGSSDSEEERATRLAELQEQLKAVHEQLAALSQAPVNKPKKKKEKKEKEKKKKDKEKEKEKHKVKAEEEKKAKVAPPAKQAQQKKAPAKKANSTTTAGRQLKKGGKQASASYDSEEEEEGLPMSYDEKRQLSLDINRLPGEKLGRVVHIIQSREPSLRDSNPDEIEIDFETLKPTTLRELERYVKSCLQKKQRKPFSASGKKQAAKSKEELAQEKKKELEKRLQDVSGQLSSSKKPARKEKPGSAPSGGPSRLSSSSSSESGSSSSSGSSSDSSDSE

Q: With `O=C(CC1CCCNC1)NC1CCCc2c1[nH]c1ccc(F)cc21` (stereo not given) as the compound, how does the Kd [1] read?
A: 25 µM

Q: And the Kd [2]?
A: 33 µM

Q: Which results are given for `Fc1ccc2[nH]c3c(c2c1)CCCC3NCC1CCNCC1` (stereo not given) [listing 1 of 3 here]?
A: Kd [2]: 61 µM; Kd [3]: 22 µM

Q: `Fc1ccc2[nH]c3c(c2c1)CCCC3NCC1CCNC1` (stereo not given) [listing 1 of 3 here] was tested. Which Kd [2] did it give?
A: 93 µM

Q: What about the Kd [3] of the same compound?
A: 68 µM

Q: `CC(C)(C)OC(=O)N1CCC(CNC2CCCc3c2[nH]c2ccc(F)cc32)C1` (stereo not given) was tested. Which Kd [1] did it give?
A: 93 µM

Q: And the Kd [4]?
A: 30 µM

Q: For `O=C(NC1CCCc2c1[nH]c1ccc(F)cc21)[C@@H]1C=CCN1` (stereo not given in full) [listing 1 of 3 here], which Kd [1] is on record?
A: 47 µM

Q: How did the Kd [2] turn out when `Fc1ccc2[nH]c3c(c2c1)CCCC3NCCC1CCCNC1` (stereo not given) [listing 1 of 3 here] was run?
A: 24 µM

Q: And the Kd [3]?
A: 18 µM

Q: `Fc1ccc2[nH]c3c(c2c1)CCCC3NCC1CCNCC1` (stereo not given) [listing 2 of 3 here] was tested. Which Kd [1] did it give?
A: 17 µM

Q: How did the Kd [1] turn out when `CC(C)C[C@H](N)CC(=O)NC1CCCc2c1[nH]c1ccc(F)cc21` (stereo not given in full) [listing 1 of 3 here] was run?
A: 11 µM

Q: For `Fc1ccc2[nH]c3c(c2c1)CCCC3NCC1CCNC1` (stereo not given) [listing 2 of 3 here], which Kd [1] is on record?
A: 11 µM

Q: With `Fc1ccc2[nH]c3c(c2c1)CCCC3NCC1CCNC1` (stereo not given) [listing 3 of 3 here] as the compound, how does the K [5] read?
A: 0.22 s⁻¹ and 0.33 s⁻¹

Q: `O=C(NC1CCCc2c1[nH]c1ccc(F)cc21)C1CCNC1` (stereo not given) was tested. Which Kd [1] did it give?
A: 31 µM

Q: What about the Kd [2] of the same compound?
A: 54 µM

Q: Which results are given for `CC(=O)NC1CCCc2c1[nH]c1ccc(F)cc21` (stereo not given)?
A: Kd [1]: 260 µM; Kd [4]: 150 µM

Q: Which Kd [4] does the source give for `O=C(NC1CCCc2c1[nH]c1ccc(F)cc21)[C@@H]1C=CCN1` (stereo not given in full) [listing 2 of 3 here] here?
A: 64 µM

Q: `OC1CCCc2c1[nH]c1ccccc21` (stereo not given) was tested. Which Kd [1] did it give?
A: 380 µM

Q: What about the Kd [4] of the same compound?
A: 230 µM

Q: With `Fc1ccc2[nH]c3c(c2c1)CCCC3NCCC1CCCNC1` (stereo not given) [listing 2 of 3 here] as the compound, how does the K [5] read?
A: 0.28 s⁻¹

Q: For `O=C(NC1CCCc2c1[nH]c1ccc(F)cc21)[C@@H]1C=CCN1` (stereo not given in full) [listing 3 of 3 here], which K [5] is on record?
A: 0.13 s⁻¹ and 0.22 s⁻¹

Q: For `CC(C)C[C@H](N)CC(=O)NC1CCCc2c1[nH]c1ccc(F)cc21` (stereo not given in full) [listing 2 of 3 here], which K [5] is on record?
A: 0.26 s⁻¹ and 0.27 s⁻¹

Q: How did the Kd [1] turn out when `Fc1ccc2[nH]c3c(c2c1)CCCC3NCCC1CCCNC1` (stereo not given) [listing 3 of 3 here] was run?
A: 7.8 µM

Q: For `Fc1ccc2[nH]c3c(c2c1)CCCC3NCC1CCNCC1` (stereo not given) [listing 3 of 3 here], which K [5] is on record?
A: 0.3 s⁻¹ and 0.49 s⁻¹

Q: Which Kd [2] does the source give for `CC(C)C[C@H](N)CC(=O)NC1CCCc2c1[nH]c1ccc(F)cc21` (stereo not given in full) [listing 3 of 3 here] here?
A: 39 µM

Q: What does the source list for `CC(C)(C)OC(=O)N1CCC(CNC2CCCc3c2[nH]c2ccc(F)cc32)CC1` (stereo not given)?
A: Kd [1]: 86 µM; Kd [4]: 31 µM
